Here are results for five compounds from patent publication US11840546B2, “Imidazopyridazine compounds and uses thereof” (Incyte Corporation, priority 2020, dated 2023).

Usually pIC50 stands for the negative decadic logarithm of the IC50, by convention in mol/L. Lower therefore signals a large IC50.

One assay deals with ALK2 (aa 147-end) (Homo sapiens (Human), UniProt Q04771). Nature of the assay: ALK2 HTRF Assay. It counts as biochemical. As to conditions: HTRF enzymatic assay, 3 μM ATP, 0.5 nM ALK2, 25° C., 2 hr. The protocol:
ALK2 (aa 147-end) was obtained from BPS biosciences. The enzymatic assays were conducted in white 384-well polystyrene plates in a final volume of 8 μL. The inhibitors were serially diluted in DMSO and added to the plate wells prior to addition of the other reaction components. The assays were carried out at 25° C. in the assay buffer (50 mM HEPES, pH 7.0, 10% Glycerol, 0.01% Brij50, 10 mM MgCl2, 1 mM EGTA, 5 mM DTT, and 0.01% BSA), containing 50 nM LANCE Ultra ULight™-DNA Topoisomerase 2-alpha peptide (Perkin Elmer TRF0130), and 3 μM ATP. The final concentration of DMSO in the assay was […] and the enzyme concentration was 0.5 nM for ALK2. The reactions were allowed to proceed for 2 hr for ALK2 after which, the reaction was quenched by addition of EDTA at a final concentration of 20 mM along with 1.5 nM LANCE Ultra Europium-anti-phospho-DNA Topoisomerase 2-alpha (Thr1342) antibody (Perkin Elmer TRF0218). The reaction was incubated at 25° C. for 1 hr and read on a PHERAstar FS plate reader (BMG Labtech). IC50 determination was performed by fitting percent control activity versus the log of the inhibitor concentration using the IDBS XLFit and GraphPad Prism 5.0 software.
(In general: In TR-FRET formats the signal depends on donor and acceptor labels being close together.)

The next assay relates to ALK2 mutant DIPG cell. To be noted: ALK2 mutant DIPG cells; cited from earlier work.

pIC50: −log10 of the molar value. A value given as a limit tells only on which side of the number the result lay.

ALK2 (aa 147-end), sequence (Q04771 147-509 limits assumed): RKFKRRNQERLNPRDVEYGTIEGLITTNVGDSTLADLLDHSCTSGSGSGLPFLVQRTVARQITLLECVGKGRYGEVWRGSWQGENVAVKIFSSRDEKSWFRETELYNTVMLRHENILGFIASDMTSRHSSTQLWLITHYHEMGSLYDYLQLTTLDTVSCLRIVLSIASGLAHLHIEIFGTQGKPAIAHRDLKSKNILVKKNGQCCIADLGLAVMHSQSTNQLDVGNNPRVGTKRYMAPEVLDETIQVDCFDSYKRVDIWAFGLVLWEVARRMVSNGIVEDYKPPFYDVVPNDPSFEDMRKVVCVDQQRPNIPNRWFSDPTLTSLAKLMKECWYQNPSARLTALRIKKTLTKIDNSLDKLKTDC

As to `Cc1cnn(-c2ccc3c(-c4cnc5cc(-c6ccc([C@]78C[C@H]7CN(C7CCOCC7)C8)cc6)c(C)nn45)ccnc3n2)n1` (stereo in doubt) [Example 4, 2-(4-Methyl-2H-1,2,3-triazol-2-yl)-5-(6-methyl-7-(4-((1S,5R)-3-(tetrahydro-2H-pyran-4-yl)-3-azabicyclo[3.1.0]hexan-1-yl)phenyl)imidazo[1,2-b]pyridazin-3-yl)-1,8-naphthyridine], the pIC50 against ALK2 (aa 147-end) was no less than 9.00.

Regarding `CCn1cnc(-c2ccc3c(-c4cnc5cc(-c6ccc([C@@]78C[C@@H]7CN(C7CCOCC7)C8)cc6)c(C)nn45)ccnc3n2)c1` [Example 1, 2-(1-Ethyl-1H-imidazol-4-yl)-5-(6-methyl-7-(4-((1R,5S)-3-(tetrahydro-2H-pyran-4-yl)-3-azabicyclo[3.1.0]hexan-1-yl)phenyl)imidazo[1,2-b]pyridazin-3-yl)-1,8-naphthyridine], the pIC50 against ALK2 (aa 147-end) was no less than 9.00.

For `c1ccc2c(-c3cnn4cc(-c5ccc(N6CCNCC6)cc5)cnc34)ccnc2c1` [LDN-19318917], in the assay on ALK2 mutant DIPG cell, the “inhibition of ALK2 mutant DIPG cell viability” value is “significant inhibition”.

As for `CCn1cnc(-c2ccc3c(-c4cnc5cc(-c6ccc(CN7CC8CCC7CC8)cc6)c(C)nn45)ccnc3n2)c1` [Example 2, 2-(4-(3-(7-(1-Ethyl-1H-imidazol-4-yl)-1,8-naphthyridin-4-yl)-6-methylimidazo[1,2-b]pyridazin-7-yl)benzyl)-2-azabicyclo[2.2.2]octane], the pIC50 against ALK2 (aa 147-end) was no less than 9.00.

On ALK2 (aa 147-end), `Cc1cnn(-c2ccc3c(-c4cnc5cc(-c6ccc(CN7CC8CCC7CC8)cc6)c(C)nn45)ccnc3n2)n1` [Example 3, 2-(4-(6-Methyl-3-(7-(4-methyl-2H-1,2,3-triazol-2-yl)-1,8-naphthyridin-4-yl)imidazo[1,2-b]pyridazin-7-yl)benzyl)-2-azabicyclo[2.2.2]octane] had a pIC50 of no less than 9.00.
